Here are results for five compounds from publication PMC5696490, “Modelling foetal exposure to maternal smoking using hepatoblasts from pluripotent stem cells” (Archives of Toxicology, 2017).

Series [1] has as its system Caspase 3/7. Nature of the series: Caspase 3/7 activity (pGlo) in donor two hESC-derived hepatocytes. The series is classed as cell-based, human. The conditions noted are these: concentration of peak caspase 3/7 activity, 8 days exposure. As to the method:
(§1) H9 and Man12 human embryonic stem cells (hESCs) identity was confirmed using short tandem repeat typing. hESCs were cultured and differentiated as previously described (Cameron et al. [2015]). Maintenance of hESCs was performed on pre-coated laminin 521 (Biolaminin) in mTeSR1 ([…] Technologies) in a humidified 37 °C, 5% CO2 incubator. For differentiation, hESCs were plated onto a pre-coated blend of laminins 521 and 111 (at a 1:3 ratio). Differentiation was initiated at 40% confluence by replacing serum-free medium with endoderm differentiation medium: RPMI 1640 containing 1× B27 (Life Technologies), 100 ng/mL Activin A (PeproTech), and 50 ng/mL Wnt3a (R&D Systems). The medium was changed every 24 h for 72 h. On day 3, endoderm differentiation medium was replaced with hepatoblast differentiation medium, and this was renewed every second day for a further 5 days. The medium consisted of knockout (KO)-DMEM (Life Technologies), Serum replacement (Life Technologies), 0.5% Glutamax (Life Technologies), 1% non-essential amino acids (Life Technologies), 0.2% β-mercaptoethanol (Life Technologies), and 1% DMSO (Sigma). On day 8, differentiating cells were cultured in the hepatocyte maturation medium HepatoZYME (Life Technologies) containing 1% Glutamax (Life Technologies), supplemented with 10 ng/mL hepatocyte growth factor (PeproTech) and 20 ng/mL oncostatin M (PeproTech). On day 10 maturation medium was replaced with HepatoZYME supplemented with and without smoking derivatives (Sigma-Aldrich) for a further 8 days, with media replaced every 48 h.
(§2) Cell health was assessed measuring ATP production and Caspase 3/7 activity at Day 18 employing pGlo technology (Promega) in accordance with the manufacturer’s instructions. Levels of expression of both markers were expressed as percentage of relative light units (RLUs) per milliliter of medium and normalised to the vehicle control. Levels of significance were measured by Student’s t test. The experiments are representative of five biological replicates.
(§3) Hepatocyte specification and maturation was performed in male and female hESCs lines in the presence or absence to smoking components. Cotinine at a concentration range of 1 to 300 nM, chrysene at a concentration range of 10 nM to 50 μM, fluorene at a concentration range of 10 nM to 100 μM, naphthalene at a concentration range of 10nm to 1 mM and phenanthrene, at a concentration range of 10 nM to 500 μM were used. Following 8 days exposure, cell health was determined by ATP production and caspase activity. Following this cell function was determined measuring CYP P450 3A and 1A2 activity. In order to measure the effectiveness of each component of cigarette smoke to inhibiting activity we used the half maximal inhibitory concentration (IC50).

Series [2] relates to Caspase 3/7. In words: Caspase 3/7 activity (pGlo) in donor one hESC-derived hepatocytes. It is filed as cell-based, human. The conditions noted are these: concentration of peak caspase 3/7 activity, 8 days exposure. As to the method: as §1, §2, §3
The subject of another series is CYP3A. In words: CYP3A activity (pGlo) in donor two hESC-derived hepatocytes. The settings on record: human two. As to the method:
as §1
CYP3A and CYP1A2 activity was measured in hepatocytes at Day 18 using pGlo technology (Promega) in accordance with the manufacturer’s instructions. CYP activity was expressed as either relative light units (RLUs) per milliliter of medium per milligram of protein (determined by the BCA assay, Pierce), or as a percentage of CYP activity normalised to the vehicle control. Levels of significance were measured by Student’s t test. The experiments are representative of five biological replicates.
as §3

The next series has as its target T1, CYP1A2 (Homo sapiens, UniProt P05177).
T1 sequence (P05177 2-516): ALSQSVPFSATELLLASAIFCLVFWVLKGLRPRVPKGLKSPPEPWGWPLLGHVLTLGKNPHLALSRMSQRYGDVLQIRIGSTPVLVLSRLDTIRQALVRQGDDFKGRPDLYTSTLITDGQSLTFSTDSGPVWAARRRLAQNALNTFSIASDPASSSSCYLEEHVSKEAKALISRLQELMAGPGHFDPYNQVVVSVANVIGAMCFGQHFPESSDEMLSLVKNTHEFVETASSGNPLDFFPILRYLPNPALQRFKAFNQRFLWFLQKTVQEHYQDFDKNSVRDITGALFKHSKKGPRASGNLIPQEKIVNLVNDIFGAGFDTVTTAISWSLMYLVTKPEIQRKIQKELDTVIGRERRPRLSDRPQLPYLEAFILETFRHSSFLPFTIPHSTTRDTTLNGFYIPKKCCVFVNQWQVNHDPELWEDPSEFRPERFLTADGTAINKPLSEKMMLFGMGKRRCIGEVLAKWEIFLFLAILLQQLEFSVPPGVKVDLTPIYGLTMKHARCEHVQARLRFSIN
Nature of the series: CYP1A2 activity (pGlo) in donor one hESC-derived hepatocytes. It is filed as cell-based. The settings on record: female hepatocytes, 8 days exposure. From the text: The experiments are representative of five biological replicates.

`c1ccc2c(c1)ccc1ccccc12` [Phenanthrene]: in the series with Caspase 3/7 [1], the “Caspase 3/7 peak activity Male” value came to 10 µM. Besides, the “Caspase 3/7 peak activity Female” value in the series with Caspase 3/7 [2] is over 500 µM. Also, the IC50 (as a rule, the point on the concentration scale where inhibition reaches its midpoint) at 8 days in the series with CYP3A was determined as 58 µM.

Regarding `c1ccc2ccccc2c1` [Naphthalene], the entries for the “IC50 CYP1A2 person one” value against CYP1A2 and against CYP1A2 (listed as naphthalene) were “Induced activity” and “induced CYP1A2 activity”, respectively. Further, in the series on Caspase 3/7 [1], the “Caspase 3/7 peak activity Male” value was 1000 µM. For the same compound, in the series with Caspase 3/7 [2], the “Caspase 3/7 peak activity Female” value was found to be 50 µM. The compound also gave an IC50 at 8 days in the series with CYP3A of 68 µM.

On to `CN1C(=O)CC[C@H]1c1cccnc1` [Cotinine], for which the “Caspase 3/7 peak activity Male” value in the series with Caspase 3/7 [1] worked out at 0.1 µM. Further, the “Caspase 3/7 peak activity Female” value in the series on Caspase 3/7 [2] was 0.1 µM. In addition, half-maximal inhibition in the series on CYP3A (IC50 at 8 days) was put at 0.05 µM.

Take `c1ccc2c(c1)ccc1c3ccccc3ccc21` [Chrysene]: in the series on Caspase 3/7 [1], the “Caspase 3/7 peak activity Male” value worked out at 5 µM. In addition, the “Caspase 3/7 peak activity Female” value in the series on Caspase 3/7 [2] was 25 µM. This compound also gave an IC50 at 8 days in the series on CYP3A of 10 µM.

As to `c1ccc2c(c1)Cc1ccccc1-2` [Fluorene], the “Caspase 3/7 peak activity Male” value in the series with Caspase 3/7 [1] came to 100 µM. In the series on Caspase 3/7 [2], the “Caspase 3/7 peak activity Female” value is over 100 µM. Moreover, the IC50 at 8 days in the series with CYP3A stood at 25 µM.
